This passage reports Activity results from ChEMBL document CHEMBL2074207, “Functional characterization of human breast cancer resistance protein (BCRP, ABCG2) expressed in the oocytes of Xenopus laevis” (Mol Pharmacol, 2003).

This series addresses T1, Broad substrate specificity ATP-binding cassette transporter ABCG2 (Homo sapiens, UniProt Q9UNQ0).
T1 sequence (Q9UNQ0 whole entry): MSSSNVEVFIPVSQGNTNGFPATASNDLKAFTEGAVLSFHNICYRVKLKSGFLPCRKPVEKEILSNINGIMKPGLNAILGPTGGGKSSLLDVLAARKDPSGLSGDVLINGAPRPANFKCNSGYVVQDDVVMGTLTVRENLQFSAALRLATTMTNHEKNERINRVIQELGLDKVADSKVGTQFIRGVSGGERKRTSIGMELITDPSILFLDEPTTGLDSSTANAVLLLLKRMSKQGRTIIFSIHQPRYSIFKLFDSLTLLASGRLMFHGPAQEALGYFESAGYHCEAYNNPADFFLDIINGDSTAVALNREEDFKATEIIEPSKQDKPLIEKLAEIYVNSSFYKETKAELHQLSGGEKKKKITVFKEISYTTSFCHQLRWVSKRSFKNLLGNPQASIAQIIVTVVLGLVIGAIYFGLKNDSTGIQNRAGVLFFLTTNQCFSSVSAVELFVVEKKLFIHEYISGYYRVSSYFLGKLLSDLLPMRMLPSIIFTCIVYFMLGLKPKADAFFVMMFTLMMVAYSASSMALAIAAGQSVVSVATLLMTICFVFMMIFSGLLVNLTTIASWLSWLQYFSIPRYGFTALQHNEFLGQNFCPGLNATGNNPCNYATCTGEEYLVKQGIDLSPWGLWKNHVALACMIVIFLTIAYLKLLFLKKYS
Kind of series: TP_TRANSPORTER: uptake in BCRP-expressing oocyte cells. In kind it is functional, cell-based. The following applies: xenopus laevis.

Consider `CN1CC[C@H](c2c(O)cc(O)c3c(=O)cc(-c4ccccc4Cl)oc23)[C@H](O)C1` [ALVOCIDIB], for which the Activity entry was “substrate []”.

`COc1cccc2c1C(=O)c1c(O)c3c(c(O)c1C2=O)C[C@@](O)(C(C)=O)C[C@@H]3O[C@H]1C[C@H](N)[C@H](O)[C@H](C)O1` [DAUNORUBICIN]: the Activity result was “substrate []”.

For `O=C1c2c(O)ccc(O)c2C(=O)c2c(NCCNCCO)ccc(NCCNCCO)c21` [MITOXANTRONE], the Activity entry is “substrate []”.

Consider `COC(=O)c1ccccc1-c1c2ccc(=N)cc-2oc2cc(N)ccc12.Cl` [RHODAMINE123], for which the Activity result was “substrate []”.
